From patent US20240360146A1, “BRUTON'S TYROSINE KINASE AND MUTANT DEGRADER, COMPOSITION AND APPLICATION THEREOF” (HANGZHOU HEALZEN THERAPEUTICS CO., LTD., priority 2021, published 2024)

target: T1, BTK (Homo sapiens, UniProt Q06187); experiment: BTK degradation activity test in Mino cells; assay type: cell-based; settings: 16 h incubation, Western blot or Elisa
T1 construct: endogenous in cells; host or cells: Mino cells
Procedure, shortened: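 DC50 derived by curve fitting of BTK degradation rates versus untreated control across compound concentrations. Mino cells were exposed for 16 h; BTK levels in lysates, normalised via BCA protein, measured by Western blot or ELISA.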

T1 sequence (Q06187 whole entry): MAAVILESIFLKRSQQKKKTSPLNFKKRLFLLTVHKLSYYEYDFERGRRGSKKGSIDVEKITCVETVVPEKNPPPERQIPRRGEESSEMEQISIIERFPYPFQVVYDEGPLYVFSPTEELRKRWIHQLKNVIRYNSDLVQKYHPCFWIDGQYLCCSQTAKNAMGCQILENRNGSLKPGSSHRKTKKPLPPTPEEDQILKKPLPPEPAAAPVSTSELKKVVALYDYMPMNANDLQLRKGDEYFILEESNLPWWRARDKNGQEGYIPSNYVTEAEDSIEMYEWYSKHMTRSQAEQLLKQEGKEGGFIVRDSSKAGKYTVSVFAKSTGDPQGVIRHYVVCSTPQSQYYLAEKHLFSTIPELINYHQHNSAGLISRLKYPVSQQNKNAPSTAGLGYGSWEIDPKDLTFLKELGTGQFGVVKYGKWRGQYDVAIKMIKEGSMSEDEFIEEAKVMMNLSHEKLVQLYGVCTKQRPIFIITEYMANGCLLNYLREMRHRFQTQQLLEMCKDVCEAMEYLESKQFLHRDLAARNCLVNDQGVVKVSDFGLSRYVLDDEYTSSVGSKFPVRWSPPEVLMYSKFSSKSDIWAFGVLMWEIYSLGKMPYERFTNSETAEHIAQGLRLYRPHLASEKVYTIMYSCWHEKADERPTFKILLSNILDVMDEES

Compound | DC50 [nM]
NC(=O)c1ncc(N2CCCC(N3CCN(C4CCCC4)C3=O)C2)nc1Nc1ccc(C2CCN(CC3CCN(c4cc5c(cc4F)C(=O)N(C4CCC(=O)NC4=O)C5=O)C3)CC2)cc1 (centres unmarked) [Compound 052, 5-(3-(3-cyclopentyl-2-oxoimidazolin-1-yl)piperidin-1-yl)-3-((4-(1-((1-(2-(2,6-dioxopiperidin-3-yl)-6-fluoro-1,3-dioxoisoindolin-5-yl)pyrrolidin-3-yl)methyl)piperidin-4-yl)phenyl)amino)pyrazin-2-carboxamide] | < 1
CC1(c2ccc(Nc3nc(N4CCCC(n5cc6ccccn6c5=O)C4)cnc3C(N)=O)cc2)CCN(C2CN(c3ccc4c(c3)C(=O)N(C3CCC(=O)NC3=O)C4=O)C2)CC1 (centres unmarked) [Compound 026, 3-((4-(1-(1-(2-(2,6-dioxopiperidin-3-yl)-1,3-dioxoisoindolin-5-yl)azetidin-3-yl)-4-methylpiperidin-4-yl)phenyl)amino)-5-(3-(3-oxoimidazo[1,5-a]pyridin-2(3H)-yl)piperidin-1-yl)pyrazin-2-carboxamide] | > 1
NC(=O)c1nnc(N2CCCC(N3CCN(c4ccccc4)C3=O)C2)nc1Nc1ccc(C2CCN(CC3CCN(c4ccc5c(c4)C(=O)N(C4CCC(=O)NC4=O)C5=O)C3)CC2)cc1 (centres unmarked) [Compound 089, 5-((4-(1-((1-(2-(2,6-dioxopiperidin-3-yl)-1,3-dioxoisoindol-5-yl)pyrrolidin-3-yl)methyl)piperidin-4-yl)phenyl)amino)-3-(3-(2-oxo-3-phenylimidazolin-1-yl)piperidin-1-yl)-1,2,4-triazin-6-carboxamide] | < 1
CN1CCN([C@@H]2CCCN(c3nnc(C(N)=O)c(Nc4cc(F)c5c(c4)CCN(CC4CCN(c6ccc7c(c6)C(=O)N(C6CCC(=O)NC6=O)C7=O)CC4)CC5)n3)C2)C1=O (stereo partly drawn) [Compound 231, 5-((3-((1-(2-(2,6-dioxopiperidin-3-yl)-1,3-dioxoisoindolin-5-yl)piperidin-4-yl)methyl)-9-fluoro-2,3,4,5-tetrahydro-1H-benzo[d]azepin-7-yl)amino)-3-((R)-3-(3-methyl-2-oxoimidazolidin-1-yl)piperidin-1-yl)-1,2,4-triazin-6-carboxamide] | < 1
CN1CCN(C2CC3CC2N(c2nnc(C(N)=O)c(Nc4ccc(C5CCN(CC6CCN(c7ccc8c(c7)CN(C7CCC(=O)NC7=O)C8=O)CC6)CC5)cc4)n2)C3)C1=O (centres unmarked) [Compound 113, 5-((4-(1-((1-(2-(2,6-dioxopiperidin-3-yl)-1-oxoisoindol-5-yl)piperidin-4-yl)methyl)piperidin-4-yl)phenyl)amino)-3-(6-(3-methyl-2-oxoimidazolin-1-yl)-2-azabicycloheptan-2-yl)-1,2,4-triazin-6-carboxamide] | < 1
CN1CCN([C@@H]2CCCN(c3nnc(C(N)=O)c(Nc4ccc(N5CCN(CC6CCN(c7ccc(NC8CCC(=O)NC8=O)c8c7OCCO8)CC6)CC5)c(F)c4)n3)C2)C1=O (stereo partly drawn) [Compound 211, 5-((4-(4-((1-(8-((2,6-dioxopiperidin-3-yl)amino)-2,3-dihydrobenzo[b][1,4]dioxan-5-yl)piperidin-4-yl)methyl)piperazin-1-yl)-3-fluorophenyl)amino)-3-((R)-3-(3-methyl-2-oxoimidazolidin-1-yl)piperidin-1-yl)-1,2,4-triazin-6-carboxamide] | < 1
CN1CCN([C@@H]2CCCN(c3nnc(C(N)=O)c(Nc4ccc(N5CCN(CC6CCN(c7ccc(NC8CCC(=O)NC8=O)cn7)C6)CC5)c(F)c4)n3)C2)C1=O (stereo partly drawn) [Compound 201, 5-((4-(4-((1-(5-((2,6-dioxopiperidin-3-yl)amino)pyridin-2-yl)pyrrolidin-3-yl)methyl)piperazin-1-yl)-3-fluorophenyl)amino)-3-((R)-3-(3-methyl-2-oxoimidazolidin-1-yl)piperidin-1-yl)-1,2,4-triazin-6-carboxamide] | < 1
NC(=O)c1nnc(N2CCCC(N3CCN(c4ccccc4)C3=O)C2)nc1Nc1ccc(C2CCN(CC3CCN(c4ccc5c(c4)C(=O)N(C4CCC(=O)NC4=O)C5)CC3)CC2)cc1 (centres unmarked) [Compound 099, 5-((4-(1-((1-(2-(2,6-dioxopiperidin-3-yl)-3-oxoisoindol-5-yl)piperidin-4-yl)methyl)piperidin-4-yl)phenyl)amino)-3-(3-(2-oxo-3-phenylimidazolin-1-yl)piperidin-1-yl)-1,2,4-triazin-6-carboxamide] | < 1
CN1CCN(C2CC3CC2N(c2nnc(C(N)=O)c(Nc4ccc(C5CCN(CC6CCN(c7ccc8c(c7)C(=O)N(C7CCC(=O)NC7=O)C8=O)C6)CC5)cc4)n2)C3)C1=O (centres unmarked) [Compound 102, 5-((4-(1-((1-(2-(2,6-dioxopiperidin-3-yl)-1,3-dioxoisoindol-5-yl)pyrrolidin-3-yl)methyl)piperidin-4-yl)phenyl)amino)-3-(6-(3-methyl-2-oxoimidazolin-1-yl)-2-azabicyclo[2.2.1]heptan-2-yl)-1,2,4-triazin-6-carboxamide] | < 1
NC(=O)c1nnc(N2CCCC(N3CCN(c4ccccc4)C3=O)C2)nc1Nc1ccc(N2CCC(N3CCN(CC#Cc4ccc5c(c4)CN(C4CCC(=O)NC4=O)C5=O)CC3)CC2)cc1 (centres unmarked) [Compound 097] | > 1
CN1CCN([C@@H]2CCCN(c3nnc(C(N)=O)c(Nc4ccc(N5CCN(CC6CCN(c7ccc8c(C9CCC(=O)NC9=O)nn(C)c8n7)C6)CC5)c(F)c4)n3)C2)C1=O (stereo partly drawn) [Compound 214, 5-((4-(4-((1-(3-(2,6-dioxopiperidin-3-yl)-1-methyl-H-pyrazolo[3,4-b]pyridin-6-yl)pyrrolidin-3-yl)methyl)piperazin-1-yl)-3-fluorophenyl)amino)-3-((R)-3-(3-methyl-2-oxoimidazolidin-1-yl)piperidin-1-yl)-1,2,4-triazin-6-carboxamide] | < 1
Cc1cc(N2CCC(CN3CCC(c4ccc(Nc5c(F)c(N6CCC[C@@H](N7CCN(C)C7=O)C6)c(F)c(F)c5C(N)=O)cc4F)CC3)CC2)ccc1N1CCC(=O)NC1=O [Compound 242, (R)-2-((4-(1-((1-(4-(2,4-dioxotetrahydropyrimidin-1(2H)-yl)-3-methylphenyl)piperidin-4-yl)methyl)piperidin-4-yl)-3-fluorophenyl)amino)-3,5,6-trifluoro-4-(3-(3-methyl-2-oxoimidazolidin-1-yl)piperidin-1-yl)benzamide] | < 1
NC(=O)c1nnc(N2CCCC(N3CCN(c4cccnc4)C3=O)C2)nc1Nc1ccc(C2CCN(CC3CCN(c4ccc5c(c4)C(=O)N(C4CCC(=O)NC4=O)C5=O)CC3)CC2)cc1 (centres unmarked) [Compound 067, 5-((4-(1-((1-(2-(2,6-dioxopiperidin-3-yl)-1,3-dioxoisoindol-5-yl)piperidin-4-yl)methyl)piperidin-4-yl)phenyl)amino)-3-(3-(2-oxo-3-(pyridin-3-yl)imidazolin-1-yl)piperidin-1-yl)-1,2,4-triazin-6-carboxamide] | < 1
NC(=O)c1ncc(N2CCCC(N3CCN(C4COC4)C3=O)C2)nc1Nc1ccc(N2CCC3(CC2)CCN(c2ccc4c(c2)C(=O)N(C2CCC(=O)NC2=O)C4=O)CC3)cc1 (centres unmarked) [Compound 017, 3-((4-(9-(2-(2,6-dioxopiperidin-3-yl)-1,3-dioxoisoindol-5-yl)-3,9-diazaspirocyclo[5.5]undec-3-yl)phenyl)amino)-5-(3-(3-(oxetan-3-yl)-2-oxoimidazolin-1-yl)piperidin-1-yl)pyrazin-2-carboxamide] | < 1
